Target: S. pneumoniae Topoisomerase IV ATPase (ParE) (Streptococcus pneumoniae serotype 4, UniProt Q59961)
Test: S. pneumoniae Topoisomerase IV ATPase inhibition
Format: biochemical
Conditions: values marked * are an average of two or more data points; for inhibition at 13 µM: read-out: % Inh (13 μM) of S. pneumoniae Topoisomerase IV ATPase
In short: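 Malachite green/ammonium molybdate phosphate detection, A650. 1.25 nM ParE, 160 μM ATP, sheared salmon sperm DNA 5 μg/ml, 20 mM Tris pH 8.0, 8.0 mM MgCl2. Controls: 2% DMSO = 0%, 20 μM EDTA = 100% inhibition; IC50 over 10 concentrations.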

Chain of S. pneumoniae Topoisomerase IV ATPase (ParE) (Q59961 whole entry): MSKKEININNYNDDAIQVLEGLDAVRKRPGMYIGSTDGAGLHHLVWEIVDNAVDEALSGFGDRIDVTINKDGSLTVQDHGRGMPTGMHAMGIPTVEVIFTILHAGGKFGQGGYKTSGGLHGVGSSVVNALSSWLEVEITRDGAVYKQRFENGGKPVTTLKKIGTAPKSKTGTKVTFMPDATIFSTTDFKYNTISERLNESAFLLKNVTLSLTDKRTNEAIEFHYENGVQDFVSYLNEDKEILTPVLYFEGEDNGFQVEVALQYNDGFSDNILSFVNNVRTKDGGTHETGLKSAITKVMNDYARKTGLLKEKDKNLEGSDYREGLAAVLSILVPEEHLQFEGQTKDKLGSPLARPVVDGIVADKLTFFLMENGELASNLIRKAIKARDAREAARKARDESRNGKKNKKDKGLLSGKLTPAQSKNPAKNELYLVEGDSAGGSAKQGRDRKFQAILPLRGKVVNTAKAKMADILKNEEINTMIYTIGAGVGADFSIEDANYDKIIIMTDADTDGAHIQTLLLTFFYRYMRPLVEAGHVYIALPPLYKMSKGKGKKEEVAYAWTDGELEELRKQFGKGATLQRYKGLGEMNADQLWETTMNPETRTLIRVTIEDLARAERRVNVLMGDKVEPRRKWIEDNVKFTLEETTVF

Compound	inhibition at 13 µM	% Inh (13 μM) of S. pneumoniae Topoisomerase IV ATPase (13 µM)
O=C(O)c1cncc(-c2cnc(Nc3ccc(F)c(Cl)c3)nc2NCCN2CCOCC2)c1 [Example 227, 5-[2-(3-Chloro-4-fluoro-phenylamino)-4-(2-morpholin-4-yl-ethylamino)-pyrimidin-5-yl]-nicotinic acid]	79%	–
CCS(=O)(=O)NC(=O)c1cc(-c2cnc(Nc3ccc(F)c(Cl)c3)nc2-n2nc(C(F)(F)F)cc2C)cnc1OC [Example 1017, 5-(2-(3-Chloro-4-fluorophenylamino)-4-(5-methyl-3-(trifluoromethyl)-1H-pyrazol-1-yl)pyrimidin-5-yl)-N-(ethylsulfonyl)-2-methoxynicotinamide]	90%	–
COc1ncc(-c2cnc(Nc3cc(C)cc(C#N)c3)nc2-n2nc(C(F)(F)F)cc2C)cc1C(=O)O [Example 781, 5-{2-[(3-cyano-5-methylphenyl)amino]-4-[5-methyl-3-(trifluoromethyl)-1H-pyrazol-1-yl]pyrimidin-5-yl}-2-methoxypyridine-3-carboxylic acid]	99%	–
COc1ccc(C(=O)O)cc1-c1cnc(Nc2ccc(F)c(Cl)c2)nc1-n1ccc(C(F)(F)F)n1 [Example 1138, 3-(2-(3-chloro-4-fluorophenylamino)-4-(3-(trifluoromethyl)-1H-pyrazol-1-yl)pyrimidin-5-yl)-4-methoxybenzoic acid]	–	94%
O=C(O)c1cncc(-c2cnc(Nc3ccc4c(c3)CCC4)nc2-n2ccc(C(F)(F)F)n2)c1 [Example 668, 5-{2-(2,3-dihydro-1H-inden-5-ylamino)-4-[3-(trifluoromethyl)-1H-pyrazol-1-yl]pyrimidin-5-yl}pyridine-3-carboxylic acid]	85%	–
COC(=O)[C@@H](C)Nc1nc(Nc2ccc(F)c(Cl)c2)ncc1-c1cncnc1 [Example 56, methyl (2R)-2-[[2-[(3-chloro-4-fluorophenyl)amino]-5-pyrimidin-5-ylpyrimidin-4-yl]amino]propanoate]	46.3%	–
CCC(C)Nc1nc(Nc2ccc(F)c(Cl)c2)ncc1-c1ccc(Cl)c(NC(=O)OC(C)(C)C)c1 (stereo not shown) [Example 1110, tert-butyl N-[5-[4-(butan-2-ylamino)-2-[(3-chloro-4-fluorophenyl)amino]pyrimidin-5-yl]-2-chlorophenyl]carbamate]	99%	–
CC1CN(c2nc(Nc3ccc(F)c(Cl)c3)ncc2-c2cccc(/C=C/C(=O)O)c2)CC(C)O1 (stereo not shown) [Example 286, (E)-3-(3-(2-(3-chloro-4-fluorophenylamino)-4-(2,6-dimethylmorpholin-)-pyrimidin-5-yl)phenyl)acrylic acid]	89.8%	–
CCOC(=O)c1cncc(-c2cnc(Nc3ccc(F)c(Cl)c3)nc2NCc2cnc(C)cn2)c1 [Example 115, ethyl 5-[2-[(3-chloro-4-fluorophenyl)amino]-4-[(5-methylpyrazin-2-yl)methylamino]pyrimidin-5-yl]pyridine-3-carboxylate]	28.8%	–
NC(=O)c1cncc(-c2cnc(Nc3ccc(F)c(Cl)c3)nc2NCCc2ccncc2)c1 [Example 474, 5-(2-[(3-chloro-4-fluorophenyl)amino]-4-{[2-(pyridin-4-yl)ethyl]amino}pyrimidin-5-yl)-pyridine-3-carboxamide]	100%	–
COCCCNc1nc(Nc2ccc(F)c(Cl)c2)ncc1-c1nnn[nH]1 [Example 937, N2-(3-chloro-4-fluorophenyl)-N4-(3-methoxypropyl)-5-(1H-tetrazol-5-yl)pyrimidine-2,4-diamine]	17%	–
CCn1cc(-c2cnc(Nc3cc(C)cc(OC)c3)nc2-n2nc(C(F)(F)F)cc2C)cc(C(=O)O)c1=O [Example 863, 1-ethyl-5-{2-[(3-methoxy-5-methylphenyl)amino]-4-[5-methyl-3-(trifluoromethyl)-1H-pyrazol-1-yl]pyrimidin-5-yl}-2-oxo-1,2-dihydropyridine-3-carboxylic acid]	100%	–
Cc1cc(C)cc(Nc2ncc(-c3ccc4c(c3)C(=O)NS4(=O)=O)c(-n3ccc(C(F)(F)F)n3)n2)c1 [Example 833, 5-{2-[(3,5-dimethylphenyl)amino]-4-[3-(trifluoromethyl)-1H-pyrazol-1-yl]pyrimidin-5-yl}-1,2-benzothiazol-3(2H)-one 1,1-dioxide]	100%	–
Cc1cc(C#N)cc(Nc2ncc(-c3cncc(C(=O)O)c3)c(-n3nc(C(F)(F)F)cc3C)n2)c1 [Example 785, 5-{2-[(3-cyano-5-methylphenyl)amino]-4-[5-methyl-3-(trifluoromethyl)-1H-pyrazol-1-yl]pyrimidin-5-yl}pyridine-3-carboxylic acid]	100%	–
CS(=O)(=O)c1cccc(Nc2ncc(-c3cncc(C(=O)O)c3)c(-n3ccc(C(F)(F)F)n3)n2)c1 [Example 643, 5-(2-{[3-(methylsulfonyl)phenyl]amino}-4-[3-(trifluoromethyl)-1H-pyrazol-1-yl]pyrimidin-5-yl)pyridine-3-carboxylic acid]	100%	–
CCS(=O)(=O)NC(=O)c1cc(-c2cnc(Nc3cc(OC)cc(OC)c3)nc2-n2nc(C(F)(F)F)cc2C)cnc1OC [Example 815, 5-{2-[(3,5-dimethoxyphenyl)amino]-4-[5-methyl-3-(trifluoromethyl)-1H-pyrazol-1-yl]pyrimidin-5-yl}-N-(ethylsulfonyl)-2-methoxypyridine-3-carboxamide]	100%	–

Compound	inhibition at 13 µM	% Inh (13 μM) of S. pneumoniae Topoisomerase IV ATPase (13 µM)
Cc1ccc(Nc2ncc(-c3cccc(/C=C/C(=O)O)c3)c(NCCCN(C)C)n2)cc1C#N [Example 338, (E)-3-(3-(2-(3-cyano-4-methylphenylamino)-4-(3-(dimethylamino)propylamino)pyrimidin-5-yl)phenyl)acrylic acid]	58.4%	–
Nc1ncc(-c2cnc(Nc3ccc(F)c(Cl)c3)nc2-n2ccc(C(F)(F)F)n2)cc1C(=O)O [Example 1073, 2-Amino-5-(2-(3-chloro-4-fluorophenylamino)-4-(3-(trifluoromethyl)-1H-pyrazol-1-yl)pyrimidin-5-yl)nicotinic acid]	99%	–
COCCCNc1nc(Nc2ccc(F)c(Cl)c2)ncc1-c1ccc2ncc(C(=O)O)cc2c1 [Example 305, 6-(2-(3-chloro-4-fluorophenylamino)-4-(3-methoxypropylamino)-pyrimidin-5-yl)quinoline-3-carboxylic acid]	89.2%	–
CCOC(=O)c1cncc(-c2cnc(Nc3ccc(F)c(Cl)c3)nc2NCCN(C)C)c1 [Example 93]	79.6%	–
COc1cc(Nc2ncc(-c3cncc(C(=O)O)c3)c(-n3nc(C(F)(F)F)cc3C)n2)cc(S(C)(=O)=O)c1 [Example 673, 5-(2-{[3-methoxy-5-(methylsulfonyl)phenyl]amino}-4-[5-methyl-3-(trifluoromethyl)-1H-pyrazol-1-yl]pyrimidin-5-yl)pyridine-3-carboxylic acid]	100%	–
O=C(O)c1cncc(-c2cnc(Nc3ccc(F)c(Cl)c3)nc2NCCc2nc3ccccc3[nH]2)c1 [Example 258, 5-(4-{[2-(1H-benzimidazol-2-yl)ethyl]amino}-2-[(3-chloro-4-fluorophenyl)amino]-pyrimidin-5-yl)pyridine-3-carboxylic acid]	88%	–
CCCNc1nc(Nc2ccc(F)c(Cl)c2)ncc1-c1cncc(C(=O)OCC)c1 [Example 90, 5-[2-(3-Chloro-4-fluoro-phenylamino)-4-propylamino-pyrimidin-5-yl]-nicotinic acid ethyl ester]	24.6%	–
COc1cc(Nc2ncc(-c3cncc(C(=O)NS(C)(=O)=O)c3)c(-n3nc(C(F)(F)F)cc3C)n2)cc(OC)c1 [Example 687, 5-{2-[(3,5-dimethoxyphenyl)amino]-4-[5-methyl-3-(trifluoromethyl)-1H-pyrazol-1-yl]pyrimidin-5-yl}-N-(methylsulfonyl)pyridine-3-carboxamide]	100%	–
Cc1cc(C(F)F)nn1-c1nc(Nc2ccc(F)c(Cl)c2)ncc1-c1cncc(C(N)=O)c1 [Example 538, 5-{2-[(3-chloro-4-fluorophenyl)amino]-4-[3-(difluoromethyl)-5-methyl-1H-pyrazol-1-yl]pyrimidin-5-yl}pyridine-3-carboxamide]	100%	–
CCOC(=O)c1cncc(-c2cnc(Nc3ccc(F)c(Cl)c3)nc2NCCCc2nc3ccccc3[nH]2)c1 [Example 140, ethyl 5-(4-(3-(1H-benzo[d]imidazol-2-yl)propylamino)-2-(3-chloro-4-fluorophenylamino)pyrimidin-5-yl)nicotinate]	83.5%	–
COc1ccccc1-c1cnc(Nc2ccc(F)c(Cl)c2)nc1NCCCN(C)C [Example 28, N^2-(3-chloro-4-fluorophenyl)-N^4-[3-(dimethylamino)propyl]-5-(2-methoxyphenyl)-pyrimidin-2,4-diamine]	62.6%	–
CCOC(=O)c1cncc(-c2cnc(Nc3ccc(F)c(Cl)c3)nc2N2CCCC2C)c1 (stereo not shown) [Example 124, ethyl 5-[2-[(3-chloro-4-fluorophenyl)amino]-4-(2-methylpyrrolidin-1-yl)pyrimidin-5-yl]pyridine-3-carboxylate]	31.3%	–
CCOC(=O)/C=C/c1cccc(-c2cnc(Nc3ccc(F)c(Cl)c3)nc2NCc2cncn2C)c1 [Example 172, (E)-ethyl 3-(3-(2-(3-chloro-4-fluorophenylamino)-4-((1-methyl-1H-imidazol-5-yl)methylamino)pyrimidin-5-yl)phenyl)acrylate]	-32.8%	–
O=C(O)/C=C/c1cncc(-c2cnc(Nc3ccc(F)c(Cl)c3)nc2-n2ccc(C(F)(F)F)n2)c1 [Example 1156, (E)-3-(5-(2-(3-chloro-4-fluorophenylamino)-4-(3-(trifluoromethyl)-1H-pyrazol-1-yl)pyrimidin-5-yl)pyridin-3-yl)acrylic acid]	88%	–
COc1cc(Nc2ncc(-c3cncc(C(=O)O)c3)c(-n3nc(C(F)(F)F)cc3C)n2)cc(OC)c1 [Example 636, 5-{2-[(3,5-dimethoxyphenyl)amino]-4-[5-methyl-3-(trifluoromethyl)-1H-pyrazol-1-yl]pyrimidin-5-yl}pyridin-3-carboxylic acid]	100%	–
